The values below are quoted from earlier work in patent publication US11859165B2, “Open-top microfluidic device with structural anchors” (EMULATE, INC., priority 2015, dated 2024).

The data set concerns cell monolayers with tight junctions. The following applies: passive paracellular diffusion across cell monolayers; value reported to be indicative of well-established monolayers.

As to Lucifer Yellow, the “Permeability (Papp) for LY” value is 0.5 to 1.2 ×10⁻⁶ cm/s.
